Test results: US10550110B2, “Tetrahydroquinoline sulfonamide derivatives as inverse agonists of retinoid-related orphan receptor gamma (ROR gamma (t))” (GALDERMA RESEARCH & DEVELOPMENT, priority 2014, dated 2020)
Where two headings read alike, the source gives them in different places.

Assays:
[1] = molecular target: T1, ROR gamma ligand-binding domain (LBD) (hRORg) (Homo sapiens, UniProt P51449); assay: GAL4-RORγ transactivation (luciferase reporter, HG5LN HeLa line); type: cell-based; details: HG5LN HeLa line with GAL4 DBD fused to ROR gamma LBD, 18 hours incubation
T1 construct: expressed in transfected cells; host or cells: HG5LN (HeLa line with GAL4-responsive luciferase reporter)
T1 sequence (P51449 269-508 limits assumed): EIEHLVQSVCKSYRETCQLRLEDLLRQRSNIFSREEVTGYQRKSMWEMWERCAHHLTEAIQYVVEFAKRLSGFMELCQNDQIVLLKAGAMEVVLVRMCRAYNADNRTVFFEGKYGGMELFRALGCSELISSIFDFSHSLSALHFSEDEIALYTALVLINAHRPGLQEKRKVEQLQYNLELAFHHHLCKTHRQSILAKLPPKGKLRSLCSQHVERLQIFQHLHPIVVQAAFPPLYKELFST
Excerpt: GAL4—RORγ Transactivation
The RORγ transactivation model was developed from the line HG5LN, which is a HeLa line that stably expresses a luciferase reporter gene controlled by a pentamer of the GAL4 recognition domain of yeast and of a β-globin promoter. The HG5LN line was stably transfected by the DNA-binding domain (DBD) of GAL4 fused to the ROR gamma ligand-binding domain (LBD). Molecules that inhibit the ROR gamma constitutive activity reduce the luciferase expression, thus leading to a reduction in the emitted luminescence.
The cells are seeded in 384-well plates (5000 cells in 45 μL/well of culture medium containing 10% fetal calf serum) and incubated for 4 hours at 37° C., 5% CO2. 5 μL of the test molecules (compounds described in the tables described above) are then added to each well and the plates are incubated for 18 hours at a temperature of 37° C. under 5% of CO2. 20 μL of luciferase substrate (Promega) are added to each well and the luminescence emitted is read by a microplate reader.
The luminescence units (“RLU”) are normalized by positive controls (“POS” containing a saturated concentration of N-(2,2,2-trifluoroethyl)-N-[4-[2,2,2-trifluoro-1-hydroxy-1-(trifluoromethyl)ethyl]phenyl])benzenesulfonamide and negative controls (“NEG” containing DMSO): % inhibition=((RLU-NEG)*100)/(POS-NEG). The IC50 values are calculated from a 4-parameter logistic model using the XLFit software (IDBS).

[2] = system: IL-17A secretion by CD4+ cells; assay: IL-17A secretion by CD4+ cells (HTRF); type: cell-based; details: human peripheral blood CD4+ cells activated with anti-CD3 and anti-CD28, 4 days incubation, IL-17A by HTRF, read-out: IC50 hCD4/IL17
Description: This model allows measurement of the effect of inhibitors on IL-17A secretion by CD4+ cells. The cells are frozen CD4+ cells (STEMCELL, #70026), isolated from peripheral human blood and activated with anti-CD3 and anti-CD28 antibodies. The amount of IL-17A secreted is measured by the TR-FRET (kit HTRF® Human Interleukin 17A (Cisbio, #64H17PEC)) technology.
The cells are rapidly thawed, resuspended in their culture medium (RPMI inactivated 10% FCS) supplemented with soluble anti-CD28 antibodies and seeded (100 000 cells/well) in 96-well plates precoated with anti-CD3 antibodies. The cells are then treated with the ranges of inhibitors to be tested (from 1000 nM to 0.05 nM, 0.1% DMSO). After 4 days of incubation, the HTRF signal is measured using a microplate reader (λexcitation=337 nm, λemission=620/665 nm). The ratios obtained (665/620) are normalized relative to the positive control (cells activated with anti-CD3 and anti-CD28, 0.1% DMSO). The IC50 values are calculated from a 4-parameter logistic model using the XLFit software (IDBS).

Row | SMILES | IC50 [1] [nM] | IC50 ([2]; 96 h) [nM] | IC50 [2] [nM]
1 | CCc1ccc(N(CC(C)C)S(=O)(=O)c2ccc3c(c2)C(O)CCN3CC2CC(O)C2)cc1 (mixture of isomers) [Compound 20, 4-hydroxy-1-(3-hydroxycyclobutylmethyl)-1,2,3,4-tetrahydroquinoline-6-sulfonic acid (4-ethylphenyl)isobutylamide] | 100 to 1000 | < 100 | 
2 | CCc1ccc(N(CC(C)C)S(=O)(=O)c2ccc3c(c2)C(O)CCN3CC2CCOCC2)cc1 (racemic) [Compound 2, 4-hydroxy-1-(tetrahydropyran-4-ylmethyl)-1,2,3,4-tetrahydroquinoline-6-sulfonic acid (4-ethylphenyl)isobutylamide] | < 100 | 100 to 1000 | 
3 | CCc1ccc(N(CC(C)C)S(=O)(=O)c2ccc3c(c2)C(O)CCN3CC2CCOCC2)cc1 (single isomer, unassigned) [Enantiomer 1, 4-hydroxy-1-(tetrahydropyran-4-ylmethyl)-1,2,3,4-tetrahydroquinoline-6-sulfonic acid (4-ethylphenyl)isobutylamide] | < 100 |  | < 100
4 | CCc1ccc(N(CC(C)C)S(=O)(=O)c2ccc3c(c2)C(O)CCN3CC2CCOCC2)cc1 (single isomer, unassigned) [Enantiomer 2, 4-hydroxy-1-(tetrahydropyran-4-ylmethyl)-1,2,3,4-tetrahydroquinoline-6-sulfonic acid (4-ethylphenyl)isobutylamide] | 100 to 1000 | < 100 | 
5 | CCc1ccc(N(CC(C)C)S(=O)(=O)c2ccc3c(c2)C(=O)CCN3CC2CCOCC2)cc1 [Compound 1, 4-oxo-1-(tetrahydropyran-4-ylmethyl)-1,2,3,4-tetrahydroquinoline-6-sulfonic acid (4-ethylphenyl)isobutylamide] | 100 to 1000 | 100 to 1000 | 
6 | CCc1ccc(N(CC(C)C)S(=O)(=O)c2ccc3c(c2)C(=O)CCN3Cc2ccncc2)cc1 [Compound 4, 4-oxo-1-pyridin-4-ylmethyl-1,2,3,4-tetrahydroquinoline-6-sulfonic acid (4-ethylphenyl)isobutylamide] | < 100 | < 100 | 
7 | CCc1ccc(N(CC(C)C)S(=O)(=O)c2ccc3c(c2)C(O)CCN3Cc2ccncc2)cc1 (stereo not shown) [Compound 10, 4-hydroxy-1-pyridin-4-ylmethyl-1,2,3,4-tetrahydroquinoline-6-sulfonic acid (4-ethylphenyl)isobutylamide] | < 100 | < 100 | 
8 | CCc1ccc(N(CC(C)C)S(=O)(=O)c2ccc3c(c2)C(O)CCN3Cc2ccnc(F)c2)cc1 (stereo not shown) [Compound 11, 1-(2-fluoropyridin-4-ylmethyl)-4-hydroxy-1,2,3,4-tetrahydroquinoline-6-sulfonic acid (4-ethylphenyl)isobutylamide] | < 100 | < 100 | 
9 | CCc1ccc(N(CC(C)C)S(=O)(=O)c2ccc3c(c2)C(O)CCN3CC2(C)CCOCC2)cc1 (stereo not shown) [Compound 14, 1-(4-methyltetrahydropyran-4-ylmethyl)-4-hydroxy-1,2,3,4-tetrahydroquinoline-6-sulfonic acid (4-ethylphenyl)isobutylamide] | < 100 | < 100 | 
10 | CCc1ccc(N(CC(C)C)S(=O)(=O)c2ccc3c(c2)C(O)CCN3CC2(F)CCOCC2)cc1 (stereo not shown) [Compound 15, 1-(4-fluorotetrahydropyran-4-ylmethyl)-4-hydroxy-1,2,3,4-tetrahydroquinoline-6-sulfonic acid (4-ethylphenyl)isobutylamide] | 100 to 1000 | < 100 | 
11 | CCc1ccc(N(CC(C)C)S(=O)(=O)c2ccc3c(c2)C(O)CCN3CC2(C)COC2)cc1 (stereo not shown) [Compound 19, 4-hydroxy-1-(3-methyloxetan-3-ylmethyl)-1,2,3,4-tetrahydroquinoline-6-sulfonic acid (4-ethylphenyl)isobutylamide] | 100 to 1000 | < 100 | 
12 | CCc1ccc(N(CC(C)C)S(=O)(=O)c2ccc3c(c2)C(O)CCN3CC2CCN(C(=O)OC)CC2)cc1 (stereo not shown) [Compound 51, methyl ester of 4-{6-[(4-ethylphenyl)isobutylsulfamoyl]-4-hydroxy-3,4-dihydro-2H-quinolin-1-ylmethyl}piperidine-1-carboxylic acid] | > 1000 |  | 
13 | CCc1ccc(N(CC(C)C)S(=O)(=O)c2ccc3c(c2)C(=O)CCN3CC2CCNCC2)cc1 [Compound 54, 4-oxo-1-piperidin-4-ylmethyl-1,2,3,4-tetrahydroquinoline-6-sulfonic acid (4-ethylphenyl)isobutylamide] | > 1000 |  | 
14 | CCc1ccc(N(CC(C)C)S(=O)(=O)c2ccc3c(c2)C(=O)CCN3C2CCNCC2)cc1 [Compound 55, 4-oxo-1-piperidin-4-yl-1,2,3,4-tetrahydroquinoline-6-sulfonic acid (4-ethylphenyl)isobutylamide] | > 1000 |  | 
15 | CCc1ccc(N(CC(C)C)S(=O)(=O)c2ccc3c(c2)C(O)CCN3CC2CCNCC2)cc1 (stereo not shown) [Compound 56, 4-hydroxy-1-piperidin-4-ylmethyl-1,2,3,4-tetrahydroquinoline-6-sulfonic acid (4-ethylphenyl)isobutylamide] | > 1000 |  | 
16 | CCc1ccc(N(CC(C)C)S(=O)(=O)c2ccc3c(c2)C(O)CCN3C2CCNCC2)cc1 (stereo not shown) [Compound 57, 4-hydroxy-1-piperidin-4-yl-1,2,3,4-tetrahydroquinoline-6-sulfonic acid (4-ethylphenyl)isobutylamide] | > 1000 |  | 
17 | CCc1ccc(N(CC(C)C)S(=O)(=O)c2ccc3c(c2)C(O)CCN3CC2CCN(C(C)=O)CC2)cc1 (stereo not shown) [Compound 58, 1-(1-acetylpiperidin-4-ylmethyl)-4-hydroxy-1,2,3,4-tetrahydroquinoline-6-sulfonic acid (4-ethylphenyl)isobutylamide] | > 1000 |  | 
18 | CCc1ccc(N(CC(C)C)S(=O)(=O)c2ccc3c(c2)C(O)CCN3CC2CCN(S(C)(=O)=O)CC2)cc1 (stereo not shown) [Compound 59, 4-hydroxy-1-(1-methanesulfonylpiperidin-4-ylmethyl)-1,2,3,4-tetrahydroquinoline-6-sulfonic acid (4-ethylphenyl)isobutylamide] | > 1000 |  | 
19 | CCc1ccc(N(CC(C)C)S(=O)(=O)c2ccc3c(c2)C(=O)CCN3C2CCN(C(C)=O)CC2)cc1 [Compound 60, 1-(1-acetylpiperidin-4-yl)-4-oxo-1,2,3,4-tetrahydroquinoline-6-sulfonic acid (4-ethylphenyl)isobutylamide] | > 1000 |  | 
20 | CCc1ccc(N(CC(C)C)S(=O)(=O)c2ccc3c(c2)C(O)CCN3C2CCN(C(C)=O)CC2)cc1 (stereo not shown) [Compound 61, 1-(1-acetylpiperidin-4-yl)-4-hydroxy-1,2,3,4-tetrahydroquinoline-6-sulfonic acid (4-ethylphenyl)isobutylamide] | > 1000 |  | 
21 | CCc1ccc(N(CC(C)C)S(=O)(=O)c2ccc3c(c2)C(=O)CCN3C2CCN(S(C)(=O)=O)CC2)cc1 [Compound 63, 1-(1-methanesulfonylpiperidin-4-yl)-4-oxo-1,2,3,4-tetrahydroquinoline-6-sulfonic acid (4-ethylphenyl)isobutylamide] | > 1000 |  | 
22 | CCc1ccc(N(CC(C)C)S(=O)(=O)c2ccc3c(c2)C(O)CCN3C2CCN(S(C)(=O)=O)CC2)cc1 (stereo not shown) [Compound 64, 4-hydroxy-1-(1-methanesulfonylpiperidin-4-yl)-1,2,3,4-tetrahydroquinoline-6-sulfonic acid (4-ethylphenyl)isobutylamide] | > 1000 |  | 
23 | COc1ccc(N(C(C)C)S(=O)(=O)c2ccc3c(c2)C(O)CCN3Cc2cn[nH]c2)c(C)c1 (stereo not shown) [Compound 65, 4-hydroxy-1-(1H-pyrazol-4-ylmethyl)-1,2,3,4-tetrahydroquinoline-6-sulfonic acid isopropyl(4-methoxy-2-methylphenyl)amide] | > 1000 |  | 
